Assay results: patent KR20130112248A, “피라졸로피리미딘 유도체 화합물, 이를 포함하는 산화질소 생성 억제용 조성물 및 뇌신경 질환 예방 및 치료용 약학적 조성물” (한국과학기술연구원, priority 2012, dated 2013)

Test system: NO production in BV-2 cells [NO 생성; BV-2 세포]
Assay: Nitric oxide (NO) quantification (nitrite, Griess reaction) in LPS-activated BV-2 cells
Type: cell-based
Details: 20 μM, LPS 0.2 ㎍/mL, 24 h co-treatment, nitrite by Griess at 540 nm

Compound	NO (% of LPS)
2-(4-(1-페닐에틸아미노)-6-(메틸티오)-1H-피라졸로[3,4-d]피리미딘-1-일)에틸카바메이트 [화합물 14g]	33.5±1.3 % of LPS
N-(2-메톡시벤질)-6-(메틸설파이닐)-1-페닐-1H-피라졸로[3,4-d]피리미딘-4-아민 [화합물 22c]	55±4 % of LPS

Same assay, conditions: 20 μM, LPS 0.2 ㎍/mL, 24 h co-treatment, nitrite by Griess at 540 nm, 1440 min

Compound	NO (% of LPS)
CC(Nc1nc(S(C)(=O)=O)nc2c1cnn2Cc1ccccc1)c1ccccc1 (single isomer, unassigned) [화합물 23q, 1-벤질-6-(메틸설포닐)-N-(1-페닐에틸)-1H-피라졸로[3,4-d]피리미딘-4-아민]	122±2.8 % of LPS

Same assay, conditions: Mus musculus, BV-2, 24 h, 20 μM, LPS 0.2 ㎍/mL, 24 h co-treatment, nitrite by Griess at 540 nm

Compound	activity at 20 µM [%]
CSc1nc(N[C@H](C)C2CCCCC2)c2cnn(-c3ccccc3)c2n1 [화합물 15r, (R)-1-페닐-4-(1-사이클로헥실에틸)아미노-6-(메틸티오)피라졸로[3,4-d]피리미딘]	41 ± 1
C=CCNc1nc(SC)nc2c1cnn2C [화합물 12i, 1-메틸-4-알릴아미노-6-(메틸티오)피라졸로[3,4-d]피리미딘]	101 ± 3
CSc1nc(NCc2ccccc2Cl)c2cnn(C(C)(C)C)c2n1 [화합물 17n, N-(2-클로로벤질)-1-t-뷰틸-6-(메틸티오)-1H-피라졸로[3,4-d]피리미딘-4-아민]	38 ± 2.9
CSc1nc(NC(C)(C)CO)c2cn[nH]c2n1 [6l, 4-(2-하이드록시-1-다이메틸에틸)아미노-6-(메틸티오)피라졸로[3,4-d]피리미딘]	125 ± 14
CSc1nc(NC(C)C2CCCCC2)c2cnn(Cc3ccccc3)c2n1 (stereo not shown) [화합물 16z, 1-벤질-N-(1-사이클로헥실에틸)-6-(메틸티오)-1H-피라졸로[3,4-d]피리미딘-4-아민]	26 ± 2.4
COc1ccc([C@H](C)Nc2nc(SC)nc3c2cnn3-c2ccc(C)cc2)cc1 [화합물 21j, N-((S)-1-(4-메톡시페닐)에틸)-6-(메틸티오)-1-p-톨릴-1H-피라졸로[3,4-d]피리미딘-4-아민]	52 ± 1.7
CSc1nc(NC2CCCCC2)c2cn[nH]c2n1 [6t, 4-사이클로헥실아미노-6-(메틸티오)피라졸로[3,4-d]피리미딘]	106 ± 5
C=CCNc1nc(SC)nc2[nH]ncc12 [6b, 4-알릴아미노-6-(메틸티오)피라졸로[3,4-d]피리미딘]	100 ± 4
CSc1nc(NCc2ccc(F)cc2)c2c(-c3ccccc3)nn(Cc3ccccc3)c2n1 [32c, 1-벤질-3-페닐-4-(4-플루오로벤질)아미노-6-(메틸티오)피라졸로[3,4-d]피리미딘]	69 ± 8
CS(=O)(=O)c1nc(NC(c2ccccc2)c2ccc(Cl)cc2)c2cnn(Cc3ccccc3)c2n1 (stereo not shown) [화합물 23s, 1-벤질-N-((4-클로로페닐)(페닐)메틸)-6-(메틸설포닐)-N-(1-페닐에틸)-1H-피라졸로[3,4-d]피리미딘-4-아민]	54 ± 2.3
C=CCn1ncc2c(NCc3ccc(C)cc3)nc(SC)nc21 [화합물 13g, N-(4-메틸벤질)-1-알릴-6-(메틸티오)-1H-피라졸로[3,4-d]피리미딘-4-아민]	12.2 ± 3.8
CSc1ncc2cnn(-c3ccccc3)c2n1 [7b, 1-페닐-6-(메틸티오)피라졸로[3,4-d]피리미딘]	78 ± 4
CC(Nc1nc(NCCCO)nc2c1cnn2Cc1ccccc1)c1ccccc1 (stereo not shown) [화합물 24b, 3-(4-(1-페닐에틸아미노)-1-벤질-1H-피라졸로[3,4-d]피리미딘-6-일아미노)프로판-1-올]	137 ± 5.7
CSc1nc(NCc2ccccc2C)c2cnn(Cc3ccccc3)c2n1 [화합물 16f, 1-벤질-4-(2-메틸벤질)아미노-6-(메틸티오)피라졸로[3,4-d]피리미딘]	35 ± 6
CC(Nc1nc(NCCOCCO)nc2c1cnn2Cc1ccccc1)c1ccccc1 (stereo not shown) [화합물 24d, 2-(2-(4-(1-페닐에틸아미노)-1-벤질-1H-피라졸로[3,4-d]피리미딘-6-일아미노)에톡시)에탄올]	130 ± 1.8
COc1ccccc1CNc1nc(SC)nc2c1cnn2-c1ccc(C)cc1 [화합물 21b, N-(2-메톡시벤질)-6-(메틸티오)-1-p-톨릴-1H-피라졸로[3,4-d]피리미딘-4-아민]	44 ± 25.2
CSc1nc(NC(C)(C)CO)c2cnn(Cc3ccccc3)c2n1 [화합물 16j, 1-벤질-4-[(1-하이드록시-2,2-다이메틸)에틸]아미노-6-(메틸티오)피라졸로[3,4-d]피리미딘]	48 ± 8
CSc1nc(NCCc2ccccc2)c2cnn(Cc3ccccc3)c2n1 [화합물 16d, 1-벤질-4-(2-페닐에틸)아미노-6-(메틸티오)피라졸로[3,4-d]피리미딘]	54 ± 1
CSc1nc(NCc2ccccc2C)c2cnn(C)c2n1 [화합물 12l, 1-메틸-4-(2-메틸벤질)아미노-6-(메틸티오)피라졸로[3,4-d]피리미딘]	69

Compound	activity at 20 µM [%]
CCCCNc1nc(S(C)(=O)=O)nc2c1cnn2-c1ccccc1 [화합물 23a, N-뷰틸-6-(메틸설포닐)-1-페닐-1H-피라졸로[3,4-d]피리미딘-4-아민]	40 ± 7.1
CSc1nc(N[C@H](C)c2ccccc2)c2cnn(Cc3ccccc3)c2n1 [화합물 16e, (R)-1-벤질-4-(1-페닐에틸)아미노-6-(메틸티오)피라졸로[3,4-d]피리미딘]	36 ± 4
CSc1nc(SCCCCl)c2cnn(Cc3ccccc3)c2n1 [화합물 16o, 4-(3-클로로프로필티오)-1-벤질-6-(메틸티오)-1H-피라졸로[3,4-d]피리미딘]	43 ± 4.6
COc1ccccc1CCn1ncc2c(Cl)nc(SC)nc21 [5k, 1-(2-메톡시펜에틸)-4-클로로-6-(메틸티오)-1H-피라졸로[3,4-d]피리미딘]	5 ± 62.9
COc1ccccc1CNc1nc(S(C)(=O)=O)nc2c1cnn2-c1ccc(C)cc1 [화합물 23m, N-(2-메톡시벤질)-6-(메틸설포닐)-1-p-톨릴-1H-피라졸로[3,4-d]피리미딘-4-아민]	35 ± 3.3
CCSc1nc(SC)nc2c1cnn2Cc1ccccc1 [화합물 16l, 1-벤질-4-(에틸티오)-6-(메틸티오)-1H-피라졸로[3,4-d]피리미딘]	48 ± 5.1
CSc1nc(NCc2ccc(Cl)cc2)c2cnn(C)c2n1 [화합물 12m, 1-메틸-4-(4-클로로벤질)아미노-6-(메틸티오)피라졸로[3,4-d]피리미딘]	53 ± 6
CSc1nc(NCc2ccc(F)cc2)c2cnn(C)c2n1 [12f, 1-메틸-4-(4-플루오로벤질)아미노-6-(메틸티오)피라졸로[3,4-d]피리미딘]	72 ± 2
CSc1nc(Cl)c2c(-c3ccccc3)nn(-c3ccccc3)c2n1 [화합물 30a, 1-페닐-3-페닐-4-클로로-6-(메틸티오)피라졸로[3,4-d]피리미딘]	13 ± 18
COc1cccc(CCn2ncc3c(NCc4ccccc4OC)nc([S+](C)[O-])nc32)c1 (stereo not shown) [화합물 22l, N-(2-메톡시벤질)-1-(3-메톡시펜에틸)-6-(메틸설파이닐)-1H-피라졸로[3,4-d]피리미딘-4-아민]	60 ± 3.3
CSc1nc(NCc2ccccc2Cl)c2cnn(CCNC(=O)OC(C)(C)C)c2n1 [화합물 14l, 2-(4-(2-클로로벤질아미노)-6-(메틸티오)-1H-피라졸로[3,4-d]피리미딘-1-일)에틸카바메이트]	24.2 ± 1.7
CSc1nc(NCc2ccccc2)c2c(-c3ccccc3)nn(Cc3ccccc3)c2n1 [32a, 1-벤질-3-페닐-4-벤질아미노-6-(메틸티오)피라졸로[3,4-d]피리미딘]	53 ± 3
CSc1nc(SCC(C)C)c2cnn(Cc3ccccc3)c2n1 [화합물 16n, 1-벤질-4-(이소부틸티오)-6-(메틸티오)-1H-피라졸로[3,4-d]피리미딘]	56 ± 4.5
CSc1nc(Sc2ccc(C)cc2)c2cnn(Cc3ccccc3)c2n1 [화합물 16p, 4-(p-톨릴티오)-1-벤질-6-(메틸티오)-1H-피라졸로[3,4-d]피리미딘]	34 ± 1.7
CSc1nc(NC(C)c2ccccc2)c2cnn(C)c2n1 (stereo not shown) [화합물 12o, 1-메틸-6-(메틸티오)-N-(1-페닐에틸)-1H-피라졸로[3,4-d]피리미딘-4-아민]	70 ± 5
CSc1nc(NCCCn2ccnc2)c2cn[nH]c2n1 [6m, 4-(3-이미다졸-1-일)프로판아미노-6-(메틸티오)피라졸로[3,4-d]피리미딘]	97 ± 6
CCN(CC)c1nc(SC)nc2[nH]ncc12 [6u, 4-다이에틸아미노-6-(메틸티오)피라졸로[3,4-d]피리미딘]	87 ± 8
COc1cccc(CNc2nc(SC)nc3c2cnn3-c2ccccc2)c1 [화합물 15l, 1-페닐-4-(3-메톡시벤질)아미노-6-(메틸티오)피라졸로[3,4-d]피리미딘]	50 ± 9
CSc1nc(NCCO)c2cn[nH]c2n1 [6f, 4-(1-하이드록시에틸)아미노-6-(메틸티오)피라졸로[3,4-d]피리미딘]	87 ± 6

Same assay, conditions: Mus musculus, BV-2, 24 h, 30 μM, LPS 0.2 ㎍/mL, 24 h co-treatment, nitrite by Griess at 540 nm

Compound	activity at 30 µM [%]
CSc1nc2[nH]ncc2c(=S)[nH]1 [9a, 6-(메틸티오)피라졸로[3,4-d]피리미딘-4-티온]	98 ± 5.5
CCOc1nc(SC)nc2[nH]ncc12 [10b, 4-에톡시-6-(메틸티오)피라졸로[3,4-d]피리미딘]	93 ± 9
